Where “and” joins values, the source holds several entries; their conditions need not be identical. Identical values can stand only once. Like-named read-outs stand apart in the source and are kept apart here.
How the values were obtained:
CYP2C19 = system: CYP2C19; set-up: method as in PMID 27693678; conditions: fitted using in vivo data; cited from earlier work
[1] = set-up: method as in PMID 27693678; conditions: estimated using PKPlus module, cited from earlier work
[2] = human plasma; cited from earlier work
[3] = Study 1: food effect clinical study, single oral dose of encorafenib 100 mg, fasted vs high-fat meal, plasma PK and safety; type: in vivo, human; conditions: for AUC(0-inf) / AUC(0-t) / Cmax: GM (GCV%); for half-life: arithmetic mean ± SD; for Vd/F / CL/F: mean ± SD; for Vd/F: read-out: Vz/F; for Tmax: median (range)
Experimental: Both studies were conducted at the Celerion Clinical Research Unit in Lincoln, NE. The trial protocols and informed consent documentation were reviewed and approved by the institutional review boards at the center. These studies were conducted in compliance with the ethical principles originating in or derived from the Declaration of Helsinki and in compliance with all International Council for Harmonization Good Clinical Practice Guideline.
In study 1, participants were randomized to 2 treatment sequences. Participants were either fasted or fed a high-fat meal on day 1 of the first period and received the alternate treatment on day 1 of the second period. Each dose was separated by a washout period of at least 7 days. […] The high-fat breakfast consisted of 2 slices of buttered toast, 2 fried eggs, 2 strips of bacon, 4 oz. of hash brown potatoes, and 240 mL of whole milk. This breakfast met the criteria specified in the FDA guidance for a high-fat meal.[6] […] Water (except water provided with each dosing) was restricted 1 h prior to and 1 h after each study drug administration but was allowed ad libitum at all other times. Participants were housed from day −1 of each period until after the 36 h blood draw and/or study procedures on day 2. Participants returned to the clinical research unit for the 48 and 72 h blood draws.
Additionally, participants were instructed not to crush, split, or chew the study drug.
Serial blood samples for PK were collected in Study 1 predose and at 0.25, 0.5, 1, 1.5, 2, 2.5, 3, 3.5, 4, 5, 6, 8, 10, 12, 24, 36, and 72 h after the day 1 dose in each period.
The actual sample collection times were used for the PK parameter analysis.
The overall safety profile was characterized by laboratory test abnormalities, physical examination, vital signs, ECGs, and AEs. […] Triplicate ECGs were also measured at the end of the studies or upon early termination.
These were back-transformed to obtain the geometric LSMs and ratios of LSMs (geometric mean ratios [GMRs]), and the corresponding 90% CIs of the GMRs, on the original scale.

[4] = TIM-1 dynamic in vitro gastrointestinal model, bioaccessibility of 75 mg encorafenib capsule; type: in vitro ADME; conditions: for time of maximum bioaccessibility / maximum bioaccessibility / total bioaccessibility (cumulative): TIM-1, 75 mg capsule; for maximum bioaccessibility / total bioaccessibility (cumulative): mean ± SD
Source text: To investigate the bioaccessibility under the different test conditions (i.e., in the fasted state, fed state, and with the use of a PPI), a dynamic in vitro GI model TIM-1 (TNO; Zeist, Netherlands) was used, which has previously been described and detailed pictorially.[25],[26] The bioaccessibility of the drug refers to the amount of drug available for drug absorption. The two filters, which are located at the end of the jejunal and ileal compartment, will capture the dissolved fraction of drug as released from the drug formulation with the help of a filtration process. The dissolved fraction of drug is the sum of drug molecules dissolved in the aqueous media (i.e., molecularly dissolved and encapsulated in the colloidal structures such as micelles). The TIM-1 model is a complex in vitro GI simulator that models the dynamic processes and conditions present in the lumen of the gastric and small intestinal regions of the GI tract. The TIM-1 system consists of a stomach, duodenum, jejunum, and ileum compartment. For more information about the setup of the TIM-1 model, the reader is referred to external literature.[27] After dosing the drug product to the stomach compartment, the computer-controlled system controls the transit of the drug formulation to the intestinal compartments at a rate that reflects the in vivo transit conditions observed in fasted, fed, and PPI states. At the end of the jejunal and ileal compartments, a lipid filtration system is installed to separate the dissolved amount of drug from these compartments and evaluate the amount of drug available for drug absorption (i.e., the bioaccessible fraction of drug). The TIM-1 model is programmed to evaluate drug product behavior in fasted, fed, and PPI conditions.[19],[28],[29] Depending on the chosen clinical condition (PPI, fed), specific experimental protocol is executed. Fasted state is simulated by implementing a predefined pH curve controlled by secretion of 1 M HCl into the gastric compartment. The gastric pH starts at pH 3 (including the coadministered glass of water) and will decrease to pH 1.7 as gastric secretion will acidify the gastric content. When the fasted PPI state is simulated, gastric content is adjusted to pH 4.5, and only water is secreted into the stomach compartment to maintain constant pH. During fed state studies, gastric pH starts at pH 6.5 and will decrease to basic fasted conditions (pH 1.7) as the food empties the stomach, and gastric secretion will be activated. Due to secretion and transit, the volumes and pH remain constant in the intestinal compartments. […] For more information about the TIM-1 settings and the determination of bioaccessible fraction, the reader is referred to external literature.[27],[28] The bioaccessible fraction was determined by withdrawing samples from the filtrate (at the end of the jejunum and ileum compartment) and these samples were, subsequently, analyzed by HPLC. The expression of the bioaccessible fraction can be depicted in a cumulative or noncumulative order to observe how much drug will become available as a function of time. […]

[5] = human, plasma, po, 100 mg, study 1, 100 mg single oral dose, fasted
[6] = human, plasma, po, 100 mg, study 1, 100 mg single oral dose, fed
[7] = study 1, 100 mg single oral dose, fasted
[8] = study 1, 100 mg single oral dose, fed

COC(=O)N[C@@H](C)CNc1nccc(-c2cn(C(C)C)nc2-c2cc(Cl)cc(NS(C)(=O)=O)c2F)n1 [encorafenib, Encorafenib]
gut CYP2C19 Km (CYP2C19): 7.51 mg/L
gut CYP2C19 Vmax (CYP2C19): 0.00504 mg/s
liver CYP2C19 Km (CYP2C19): 7.51 mg/L
liver CYP2C19 Vmax (CYP2C19): 0.00504 mg/s
clearance ([1]; 2-compartmental, 100 mg fasted): 16.08 L/h[31]
K10 [1]: 0.197 h^–1[31]
K12 [1]: 0.173 h^–1[31]
K21 [1]: 0.016 h^–1[31]
in vitro protein binding [2]: 86%
AUC(0-inf) [3, 5]: 3120 ng·h/mL
AUC(0-t) [3, 5]: 3130 ng·h/mL
Cmax [3, 5]: 962 ng/mL
half-life [3, 5]: 4.79 ± 3.79 h
Vd/F [3, 5]: 226 ± 207 L
Tmax ([3]; human, plasma, po, 100 mg, study 1, 100 mg single oral dose, fasted, read-out: Tmax): 1.5 h
AUC(0-t) [3, 6]: 3020 ng·h/mL
Cmax [3, 6]: 621 ng/mL
half-life [3, 6]: 5.61 ± 3.69 h
Vd/F [3, 6]: 262 ± 163 L
Tmax ([3]; human, plasma, po, 100 mg, study 1, 100 mg single oral dose, fed, read-out: Tmax): 3.5 h
AUC(0-inf) ([3]; human, plasma, po, 100 mg, study 1, encorafenib 100 mg single oral dose, fed (high-fat meal)): 3030 ng·h/mL
tolerability ([3]; single oral dose of 100 mg, healthy participants): tolerated
changes in vital signs, laboratory values, or ECG measurements ([3]; study 1): No clinically significant changes
participants reporting headache ([3]; study 1): 73%
participants who discontinued due to an AE related to encorafenib ([3]; study 1): 2 participants
severity of AEs ([3]; study 1): all mild in severity
CL/F [3, 7]: 34.64 ± 14.209 L/h
Tmax [3, 7]: 1.495 (0.997, 3.49) h
CL/F [3, 8]: 35.13 ± 12.535 L/h
Tmax [3, 8]: 3.499 (2.00, 5.00) h
delay of median Tmax under fed conditions ([3]; study 1, fed vs fasted): 2 h
Cmax lower in fed state than fasted ([3]; study 1, fed vs fasted, 100 mg): 36%
decrease in AUCinf with a high-fat meal ([3]; study 1, fed vs fasted, 100 mg): 4%
decrease in AUClast with a high-fat meal ([3]; study 1, fed vs fasted, 100 mg): 4%
participants reporting AEs ([3]; study 1, following encorafenib in the fasted state): 79%
participants reporting AEs ([3]; study 1, following encorafenib in the fed state): 92%
participants reporting flushing ([3]; study 1, most common AE): 83%
participants who discontinued due to AEs ([3]; study 1, of 40 participants who entered): 6 participants
participants reporting AEs ([3]; study 1, overall): 95%
time of maximum bioaccessibility ([4]; PPI): 1.5 h
maximum bioaccessibility ([4]; PPI): 18% and 18 ± 4%
total bioaccessibility (cumulative) ([4]; PPI): 83% and 83 ± 6%
time of maximum bioaccessibility ([4]; fasted): 1.5 h
maximum bioaccessibility ([4]; fasted): 16% and 16 ± 4%
total bioaccessibility (cumulative) ([4]; fasted): 77% and 77 ± 4%
time of maximum bioaccessibility ([4]; fed): 4 h
maximum bioaccessibility ([4]; fed): 13% and 13 ± 0%
total bioaccessibility (cumulative) ([4]; fed): 80% and 80 ± 1%
bioaccessible fraction ([4]; TIM-1, in the 3 conditions (fasted, fed, PPI)): ≥ 80%
